From publication PMC8642699, “Dipeptidyl peptidase-IV inhibitory action of Calebin A: An in silico and in vitro analysis” (Journal of Ayurveda and Integrative Medicine, 2021)

Target: T1, Dipeptidyl peptidase-IV (DPP-IV) (Homo sapiens, UniProt P27487)
T1 construct: gene DPP4
Assay: Fluorogenic enzyme inhibition assay (Cayman DPP-IV inhibitor screening kit […], Gly-Pro-AMC substrate)
Assay type: biochemical

T1 sequence (P27487 39-766): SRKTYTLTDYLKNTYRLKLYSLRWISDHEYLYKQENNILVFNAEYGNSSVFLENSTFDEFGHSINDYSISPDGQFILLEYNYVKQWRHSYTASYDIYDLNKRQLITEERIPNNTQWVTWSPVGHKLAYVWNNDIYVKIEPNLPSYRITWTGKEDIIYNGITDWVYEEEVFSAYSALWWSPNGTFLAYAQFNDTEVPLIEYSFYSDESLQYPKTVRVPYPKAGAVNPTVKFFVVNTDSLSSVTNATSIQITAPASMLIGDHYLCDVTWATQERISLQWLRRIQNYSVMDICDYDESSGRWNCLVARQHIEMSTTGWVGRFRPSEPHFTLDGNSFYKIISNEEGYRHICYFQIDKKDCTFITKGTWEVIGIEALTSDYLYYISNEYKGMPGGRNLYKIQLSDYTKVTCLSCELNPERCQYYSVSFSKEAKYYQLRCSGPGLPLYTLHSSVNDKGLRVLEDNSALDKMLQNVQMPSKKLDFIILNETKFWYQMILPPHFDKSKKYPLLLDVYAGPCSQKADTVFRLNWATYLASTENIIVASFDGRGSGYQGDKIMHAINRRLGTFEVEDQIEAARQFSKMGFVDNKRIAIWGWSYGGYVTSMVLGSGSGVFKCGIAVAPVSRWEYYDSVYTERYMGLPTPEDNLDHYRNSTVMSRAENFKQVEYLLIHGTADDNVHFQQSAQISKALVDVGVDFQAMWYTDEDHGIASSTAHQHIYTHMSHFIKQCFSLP

Work on COc1cc(/C=C/C(=O)COC(=O)/C=C/c2ccc(O)c(OC)c2)ccc1O [CA, Calebin A] yielded an IC50 of 6.09 ± 0.41 µM.
